Holding throughout (type): cell-based
Holding throughout (settings): iodinin 10 μg/ml, 72 hours

Assay [1] relates to MCF-7 (human breast adenocarcinoma). Put plainly: MTT assay, cytotoxic effect on MCF-7 cells. On the procedure:
(§1) Cell growth inhibitory effects were determined by an MTT assay after treating the cell lines with 2, 5, and 10 μg/ml of iodinin for 72 hours. Mean±SE of four independent experiments are shown. The cytotoxic activity of the compound iodinin was tested in vitro in MRC-5, AGS, HeLa, HepG2 and MCF-7 cell lines.
(§2) MRC-5 (embryonal lung, normal, human, BCRC60023), AGS (Human gastric adenocarcinoma, BCRC 60102), HeLa (Human cervical epithelioid carcinoma, BCRC 60005), HepG2 (Human hepatoblastoma, BCRC 60177), and MCF7 (human breast adenocarcinoma, BCRC 60436) were purchased from BCRC, Food Industry Research and Development Institute, Taiwan. […]
(§3) The cytotoxic activities of the compound, iodinin, against all cell lines were assayed by a modified MTT [3-(4,5-dimethylthiazole-2-yl)-2,5-diphenyltetrazolium bromide] […] After 3 days of incubation, the cell numbers for each of the cell lines were determined by the following MTT assay: 20 μl of 1 mg/ml of MTT were added to each well of the plates, and the plates were then incubated at 37° C. for 5 hours. Formazan crystals were redissolved in 100 μl of DMSO (Merck) for 10 minutes via shaking, and the plates were read immediately on an ELISA reader (Bio-Tek) at a wavelength of 540 nm (Mosmann, 1983).
In general terms: Tetrazolium dyes change colour on reduction, which living cells bring about.

Assay [2] relates to MRC-5 (embryonal lung, normal, human). The experiment in a line: MTT assay, cytotoxic effect on MRC-5 cells. On the procedure: as §1, §2, §3
Assay [3] relates to HepG2 (Human hepatoblastoma). Put plainly: MTT assay, cytotoxic effect on HepG2 cells. On the procedure:
as §1, §2, §3

Assay [4] has as its system HeLa (Human cervical epithelioid carcinoma). The experiment in a line: MTT assay, cytotoxic effect on HeLa cells. The procedure:
as §1, §2, §3

The subject of assay [5] is AGS (Human gastric adenocarcinoma). Put plainly: MTT assay, cytotoxic effect on AGS cells. The procedure: as §1, §2, §3

Take `[O-][n+]1c2cccc(O)c2[n+]([O-])c2cccc(O)c21` [iodinin, 1,6-phenazinediol 5,10-dioxide]: the “percentage of cell survival” value in assay [1] was 29%; in assay [2], 47%; in assay [3], 40%; in assay [4] it was 26%; in assay [5], 8%.

Source of the values: US20090042894A1, “NOVEL SPECIES OF ACROCARPOSPORA, A METHOD OF PREPARING IODININ, AND THE USES OF IODININ” (FOOD INDUSTRY RESEARCH AND DEVELOPMENT INSTITUTE, priority 2007, published 2009).
